Laboratory results reported in PMC5826112, “Intrapulmonary Pharmacokinetics of Relebactam, a Novel β-Lactamase Inhibitor, Dosed in Combination with Imipenem-Cilastatin in Healthy Subjects” (Antimicrobial Agents and Chemotherapy, 2018).
Read-outs that look alike come from different tables or passages of the source.

Columns and labels:
[1] = no reference given; cited from earlier work
[2] = set-up: method as in PMID 25403667; conditions: thigh infection model; cited from earlier work
[3] = set-up: method as in data on file; conditions: mice; ref data on file; cited from earlier work
[4] = set-up: method as in earlier work; conditions: cited from earlier work
[5] = set-up: method as in earlier work; conditions: relebactam doses of 125 mg or higher; exceeds single-dose target; cited from earlier work
[6] = Safety and tolerability in healthy subjects; type: in vivo, human (healthy subjects); conditions: with imipenem-cilastatin
From the text: The safety and tolerability of relebactam were monitored by clinical assessment of adverse events, measurement of vital signs, and performance of a physical examination, 12-lead electrocardiogram (ECG), and standard laboratory safety tests (hematology, chemistry, and urinalysis). Renal function (established by determination of serum/urine creatinine, serum urea, urine protein, and urine albumin concentrations) and hepatic function (established by determination of serum bilirubin, alanine aminotransferase, and aspartate aminotransferase concentrations) were carefully monitored during the study. The safety of bronchoscopy and BAL was monitored by clinical assessment, including continuous cardiac monitoring and repeated measurements of vital signs, according to the standard operating procedures at the study site. All data were analyzed according to the treatment actually received. Safety and tolerability were assessed in the all-subjects-as-treated (AST) population, defined as all subjects who received at least one dose of study drug.

[7] = set-up: method as in PMID 27503659, PMID 28575389; conditions: coadministration with imipenem-cilastatin, phase 2 clinical studies; cited from earlier work
[8] = Relebactam population PK model (two-compartment plasma model with time-invariant ELF partition coefficient); type: in vivo, human (healthy subjects)
Procedure: Population PK analysis was conducted using NONMEM (version 7.3) software (ICON plc., Dublin, Ireland). The first-order conditional estimation with interaction (FOCEI) method was applied for parameter estimation. […] To elucidate the relationship between plasma and ELF concentrations, penetration into the ELF was explored using three approaches, each using a naive pooled data approach: (i) a three-compartment model with bidirectional mass transfer between the ELF compartment and the central volume, (ii) a time-invariant partition coefficient driven by the predicted unbound plasma concentration, and (iii) an effect compartment with an input rate constant driven by the concentration difference between the volume in the central compartment and the effect compartment.
The equations comprising the partition coefficient model are as follows: (1) dA1/dt=Q2/V2A2−Q2/V1A1−CL/V1A1 (2) dA2/dt=Q2/V1A1−Q2/V2A2 (3) CELF=kELF·fu,REL·A1/V1 where A1 is the amount of drug in the central compartment, A2 is the amount of drug in the peripheral compartment, CL is the plasma clearance, Q2 is the intercompartmental clearance, V1 is the volume of distribution in the central compartment, V2 is the volume of distribution in the peripheral compartment, CELF is the relebactam concentration in the ELF, fu,ELF is the free fraction of relebactam in plasma (∼80%), kELF is the partition coefficient for distribution into the ELF space, and t is time.
The free fraction in the ELF was assumed to be 100%. Different residual error models (additive, proportional, and combined) were tested for both the plasma and ELF concentrations of relebactam. Model development, including the selection of the structural and residual error model, was based upon the success of minimization, numerical comparison of the objective function values, the precision of the parameter estimates, and the generation of standard model diagnostic plots. The PK of imipenem were not modeled, as the lung penetration data from this study were previously described using a population PK approach ([21]).

O=C(NC1CCNCC1)[C@@H]1CC[C@@H]2CN1C(=O)N2OS(=O)(=O)O [relebactam]
unbound in plasma (free fraction) [1]: ~80%
required exposure (AUC0–24) for efficacy [2]: ~100 µM·h
penetration into the murine lung, ratio of total drug levels in the lung to total drug levels in plasma [3]: approximately 34%
single-dose target (AUC0–∞) ([4]; derived from the target of 150 μM · h after four times daily dosing): 37.5 µM·h
required exposure (AUC0–24) for efficacy ([4]; pulmonary infection model): 150 µM·h
exposure (AUC0–∞) [5]: > 37.5 µM·h
tolerability [6]: sufficiently well tolerated
tolerability [7]: generally well tolerated
Kp ([8]; human, ELF / unbound plasma, intravenous, driven by predicted unbound plasma concentration, read-out: Penetration coefficient for ELF (θkELF)): 0.553
Kp ([8]; human, ELF/unbound plasma, intravenous, based on free drug levels, read-out: time-invariant partition coefficient (ELF) estimated by the model): 0.55
clearance ([8]; human, plasma, intravenous, population PK structural model, read-out: Clearance (θCL) (converted)): 153 mL/min
Vd ([8]; human, plasma, intravenous, population PK structural model, read-out: Volume of distribution in the central compartment (θVc)): 15.3 L
Intercompartmental clearance (θQ2) ([8]; population PK structural model): 2.64 L/h
Volume of distribution in the peripheral compartment (θVp) ([8]; population PK structural model): 10.6 L
